In PMC10900488, “Synthesis and Evaluation of (Bis)benzyltetrahydroisoquinoline Alkaloids as Antiparasitic Agents” (JACS Au, 2024):

Assays:
mNG::RAD51 promastigotes = assay: mNG::RAD51 nuclear foci studies; type: cell-based, Leishmania (L.) mexicana; details: 50 μM, up to 24 h
Description: DSBs often lead to cytotoxicity, which could be an explanation for the observed compound activity.[44]−[46]Leishmania employ the RAD51 DNA recombinase protein as part of its DNA repair machinery to fix naturally occurring nuclear DSBs via homologous recombination.[47]−[50] Using a CRISPR/Cas9 gene editing strategy,[51] we generated a genetically modified cell line with mNeonGreen tagged RAD51. This would allow observation of fluorescent RAD51 protein recruitment to foci in the nucleus corresponding to DSB accumulation, as has been shown in T. brucei.[52],[53] Phleomycin was used as a positive control to induce DSBs,[54] which led to the expected observation of accumulation of RAD51 as green dots in the nucleus in 80% of cells from as early as 2 h posttreatment (Figure 2D). […] We can therefore conclude that the BI compounds tested are unlikely to act via DSBs (albeit this methodology is sensitive only to DSBs in nuclear DNA), and another mechanism of cell cycle disruption is responsible for the breakdown in the healthy cell cycle.
(§1) NCTC cells (6 × 10^4/well) were added to a 96-well plate. Treatments of the cells with selected compounds (serially diluted 1.5 to 200 μM) was performed in a humidified incubator for 96 h at 37 °C and with 5% CO2.
(§2) The MTT colorimetric method was used to determine the 50% cytotoxic concentration (CC50) and the selectivity index (CC50 against NCTC cells/IC50 against amastigotes).15 […]
(§3) […] […] Statistical significance was derived from a two-tailed T-test.
(§4) The Graph Pad Prism 5 software was used to perform sigmoid dose-response curves for the determination of […]
(§5) […] At 6 h and 24 h post-treatment, a 1 mL aliquot was taken for imaging. The cell cycle experiment was preformed twice independently.
(§6) Generation of mNG::RAD51 tagged cell line
(§7) The single-stranded DNA-binding protein RAD51, associated with DNA Repair, LmxM.28.0550 was tagged with endogenous fluorescent protein mNeonGreen (mNG) at the N-terminus. […]
Primers for constructs and sgRNA were designed using LeishGEdit (http://www.leishGEdit.net). […]

[1] = Mammalian toxicity, MTT colorimetric; type: cell-based, murine; details: mouse
Protocol: Table 1 depicts the antileishmanial (L. infantum) activity evaluation performed against both the amastigote form (evaluated microscopically using an ex vivo intracellular model of mice macrophages) and the promastigote one (using an MTT colorimetric method).[32],[33] The cytotoxicity was evaluated against NCTC cells using an MTT colorimetric method and the selectivity index was determined using the ratio between the CC50 values (NCTC cells) and the IC50 values (amastigotes).[32] […] With respect to the substituents on the C ring, larger, hydrophobic groups conferred greater bioactivity (e.g., 9b–d), whereas small, hydrophilic groups such as a hydroxyl group afford modest to poor bioactivity. […]
Murine conjunctive fibroblasts NCTC clone 929 (ATCC) were maintained in 10% foetal calf serum supplemented RPMI-1640 medium (pH 7.2) at 37 °C in a humidified incubator with 5% CO2. […]
Biological activity assays […]
as §1, §2, §5, §6, §7
Primers for constructs and sgRNA were designed using LeishGEdit (http://www.leishGEdit.net).
PCR was at 94 °C for 5 min, followed by 35 cycles at 94 °C (15 sec), 65 °C (15 sec), 72 °C (2 min) then finally 72 °C (1 min).
PCR was at 94 °C for 30 sec, followed by 30 cycles at 94 °C (30 sec), 60 °C (30 sec), 72 °C (30 sec) then finally 72 °C (2 min). […] Combined PCR products were precipitated for 20 min with 10 μL 3M sodium acetate and 300 μL EtOH, pelleted at 14000 min-1 30 min, washed once with 70% EtOH, re-pelleted and resuspended in […]
Promastigotes (1 × 10^7 cells) were combined with PCR products and transfected using the Amaxa Nucleofector II.17 Electroporation was performed using 2 mm cuvettes on the X-100 program, followed by immediate suspension in pre-warmed M199 medium. Successful transfectants were selected with 20 μg mL-1 Puromycin 15 h after transfection, taking 4 days to reach stable growth in culture. mNG::RAD51 nuclear foci studies mNG::RAD51 promastigotes (5 × 10^6 cells mL-1) in 7 mL of M199 medium were treated with 7 μL o f compound (S)-9a or (S)-9b dissolved in DMSO giving a final concentration of 50 μM. Phleomycin was used as a positive control at a final concentration of 25 μg mL-1. At T = 0, 15, 30, 60 min, and 2, 6, 24 h post-treatment a 0.8 mL aliquot was taken for imaging.

[2] = system: L. mexicana promastigotes; assay: Cell cycle studies (K/N counts); type: cell-based, Leishmania (L.) mexicana; details: 50 μM, 6 and 24 h
Protocol: To investigate whether the morphological changes are a consequence of cell cycle interference, we analyzed the cell cycle over a 24 h period. Untreated L. mexicana promastigotes typically have a doubling time of 7.1 h, with each of the DNA-containing organelles replicating once in the order […], before cytokinesis, leading to two daughter cells.[37],[38] […] Cells treated with (S)-9a at 50 μM were studied after 6 and 24 h of treatment, and found to deviate from the typical cell cycle, giving rise to abnormal categories of cells with incorrectly replicated organelles (Figure 2C). For around 15% of the cells in 1K1N there was the presence of an eXtra structure (1K1N1X) that could not be clearly assigned as K or N, generally toward the posterior end of the cell body.
as §1, §2, §3, §4

Structure (SMILES)	RAD51 nuclear foci (mNG::RAD51 promastigotes)	CC50 at 96 h [1] [µM]	cells in 1K1N with an extra structure (1K1N1X) [2]	proportion of cells in the dividing stages (Non-1K1N) ([2]; versus the expected 10%)
COc1cc2c(cc1OC)[C@H](Cc1ccc(OC)c(OCc3ccccc3)c1)N(C)CC2 [(S)-9b]	no RAD51 nuclear foci	47.1 ± 11.2		
COc1cc2c(cc1OC)[C@@H](Cc1ccc(Oc3cc(C[C@H]4c5cc(OC)c(OC)cc5CCN4C)ccc3OC)cc1)N(C)CC2 [(S,R)-11, (−)-O,O′-dimethylgrisabine]		10.2 ± 1.4		
COc1cc2c(cc1OC)[C@H](Cc1ccc(Br)cc1)N(C)CC2 [(S)-9a]	no RAD51 nuclear foci	42.5 ± 1.5	around 15%	doubled
